Where two headings read alike, the source gives them in different places.
Assays:
NIK/MAP3K14 = NIK/MAP3K14 (Homo sapiens (Human), UniProt Q99558); test: Inhibition of auto-phosphorylation of recombinant human NF-kappaB-inducing kinase (NIK/MAP3K14) activity (AlphaScreen); format: biochemical; details: averaged values over all measurements on all batches, 25 microM ATP
Protocol: Inhibition of Auto-Phosphorylation of Recombinant Human NF-kappaB-Inducing Kinase ([…]) Activity (AlphaScreen®)
NIK/MAP3K14 auto-phosphorylation activity was measured using the AlphaScreen® (αscreen) format (Perkin Elmer). All compounds tested were dissolved in dimethyl sulfoxide (DMSO) and further dilutions were made in assay buffer. Final DMSO concentration was […] in assays. Assay buffer was 50 mM Tris pH 7.5 containing 1 mM EGTA (ethylene glycol tetraacetic acid), 1 mM DTT (dithiothreitol), 0.1 mM Na3VO4, 5 mM MgCl2, 0.01% Tween® 20. Assays were carried out in 384 well Alphaplates (Perkin Elmer). Incubations consisted of compound, 25 microM Adenosine-5′-triphosphate (ATP), and 0.2 nM NIK/MAP3K14. Incubations were initiated by addition of GST-tagged NIK/MAP3K14 enzyme, carried out for 1 h at 25° C. and terminated by addition of stop buffer containing anti-phospho-[…] Ser176/180 antibody. Protein A Acceptor and Glutathione-Donor beads were added before reading using an EnVision® Multilabel Plate Reader (Perkin Elmer). Signal obtained in the wells containing blank samples was subtracted from all other wells and IC50's were determined by fitting a sigmoidal curve to % inhibition of control versus Log10 compound concentration.

[1] = system: P-IKKα levels in L363 cells; test: Effect of compounds on P-IKKα levels in L363 (NIK translocated multiple myeloma) cells; format: cell-based, human; details: 2 hr treatment, averaged values, read-out: Inhibition of pIKKα_L-363 (IC50 (nM))
Protocol: Effect of Compounds on P-IKKα Levels in L363 (NIK Translocated Multiple Myeloma) Cells
All compounds tested were dissolved in DMSO and further dilutions were made in culture medium. Final DMSO concentration was 1% (v/v) in cell assays. The human L363 cells (ATCC) were cultured in RPMI 1640 medium supplemented with GlutaMax and 10% fetal calf serum (PAA). Cells were routinely maintained at densities of 0.2×10^6 cells per ml—1×10^6 cells per ml at 37° C. in a humidified 5% CO2 atmosphere. Cells were passaged twice a week splitting back to obtain the low density. Cells were seeded in 96 well plates (Nunc 167008) at 2×10^6 per ml media in a volume of 75 μl per well plus 25 μl 1 μg/ml recombinant human B-cell activating factor (BAFF/BLyS/TNFSF13B). Seeded cells were incubated at 37° C. in a humidified 5% CO2 atmosphere for 24 hr. Drugs and/or solvents were added (20 μl) to a final volume of 120 μl. Following 2 hr treatment plates were removed from the incubator and cell lysis was achieved by the addition of 30 μl 5× lysis buffer followed by shaking on a plate shaker at 4° C. for 10 min. At the end of this incubation lysed cells were centrifuged at 800×g for 20 min at 4° C. and the lysate was assessed for P-IKKα levels by sandwich immuno-assay carried out in anti-rabbit antibody coated Mesoscale plates. Within an experiment, the results for each treatment were the mean of 2 replicate wells. For initial screening purposes, compounds were tested using an 8 point dilution curve (serial 1:3 dilutions). For each experiment, controls (containing MG132 and BAFF but no test drug) and a blank incubation (containing MG132 and BAFF and 10 μM ADS125117, a test concentration known to give full inhibition) were run in parallel. The blank incubation value was subtracted from all control and sample values. To determine the IC50 a sigmoidal curve was fitted to the plot of % inhibition of control P-IKKα levels versus Log10 compound concentration.

Chain of NIK/MAP3K14 (Q99558 whole entry): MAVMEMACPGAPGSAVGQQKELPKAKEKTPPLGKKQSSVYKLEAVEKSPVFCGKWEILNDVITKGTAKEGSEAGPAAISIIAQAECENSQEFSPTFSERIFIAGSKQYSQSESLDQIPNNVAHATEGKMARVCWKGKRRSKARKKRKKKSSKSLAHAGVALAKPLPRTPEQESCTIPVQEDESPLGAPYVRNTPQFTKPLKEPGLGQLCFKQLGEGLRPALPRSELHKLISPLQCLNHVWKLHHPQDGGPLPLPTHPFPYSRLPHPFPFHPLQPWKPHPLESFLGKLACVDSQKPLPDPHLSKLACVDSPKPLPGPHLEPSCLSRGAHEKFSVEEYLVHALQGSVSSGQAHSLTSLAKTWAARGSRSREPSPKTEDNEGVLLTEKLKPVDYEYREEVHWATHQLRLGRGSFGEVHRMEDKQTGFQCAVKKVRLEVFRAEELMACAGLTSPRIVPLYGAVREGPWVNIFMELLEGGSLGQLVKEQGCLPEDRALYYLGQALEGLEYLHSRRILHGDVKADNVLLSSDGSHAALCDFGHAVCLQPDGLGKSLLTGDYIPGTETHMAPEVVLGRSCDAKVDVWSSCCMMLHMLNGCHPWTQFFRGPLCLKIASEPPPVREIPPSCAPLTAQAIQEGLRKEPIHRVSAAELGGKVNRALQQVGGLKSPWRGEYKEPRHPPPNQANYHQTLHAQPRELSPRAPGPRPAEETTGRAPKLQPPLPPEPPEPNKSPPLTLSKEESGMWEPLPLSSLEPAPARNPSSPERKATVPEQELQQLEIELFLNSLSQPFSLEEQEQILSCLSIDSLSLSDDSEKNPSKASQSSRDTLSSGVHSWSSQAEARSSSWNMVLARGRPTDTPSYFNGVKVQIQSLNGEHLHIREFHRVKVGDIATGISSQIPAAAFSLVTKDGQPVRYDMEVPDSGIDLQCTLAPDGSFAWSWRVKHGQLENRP

IC50 (NIK/MAP3K14) [nM] | IC50 ([1]; Homo sapiens, L-363, 2 h) [nM] | Structure (SMILES) | IC50 [1] [nM]
6.2 | – | CC1CC(C)n2ncc(Nc3nccc(-c4cc(C#N)c5c(c4)C(C)(CO)CN5)n3)c2O1 (racemic) [Compound 20b] | 2
10.5 | 14 | CN(C)C(=O)c1cc2cc(Nc3nccc(-c4cc(C#N)c5c(c4)C(C)(C)CN5)n3)ccc2[nH]1 [Compound 12c] | –
6.2 | 3 | COc1cc2[nH]ccc2cc1Nc1nccc(-c2cc(C#N)c3c(c2)C(C)(CO)CN3)n1 (centres unmarked) [Compound 13c] | –
2240 | > 10000 | C[C@]1(CO)CNc2c(C#N)cc(-c3ccnc(Nc4cc5c(nc4C#CC4CC4)CCOC5)n3)cc21 [Compound 22] | –
5.9 | 8 | CC1OCCn2nc(Nc3nccc(-c4cc(C#N)c5c(c4)C(C)(C)CN5)n3)cc21 (centres unmarked) [Compound 32b] | –
4.3 | 69 | CN1CCc2nc(OCC3CC3)c(Nc3nccc(-c4cc(C#N)c5c(c4)[C@@](C)(CO)CN5)n3)cc2C1 [Compound 35] | –
3.7 | 16 | CC(=O)N1CCc2c1ccc(Nc1nccc(-c3cc(C#N)c4c(c3)C(C)(CO)CN4)n1)c2F (centres unmarked) [Compound 36] | –
4.3 | 9 | CC1(CO)CNc2c(C#N)cc(-c3ccnc(Nc4ccc5c(c4F)CCN5)n3)cc21 (centres unmarked) [Compound 37] | –
3.4 | 12 | CN(C)CC(=O)N1CCc2c1ccc(Nc1nccc(-c3cc(C#N)c4c(c3)C(C)(CO)CN4)n1)c2F (centres unmarked) [Compound 38] | –
2.5 | 3 | COc1cc2c(cc1Nc1nccc(-c3cc(C#N)c4c(c3)C(C)(CO)CN4)n1)CCN2C(C)=O (centres unmarked) [Compound 39] | –
4.3 | 3 | COc1cc2c(cc1Nc1nccc(-c3cc(C#N)c4c(c3)C(C)(CO)CN4)n1)CCN2C(=O)CN(C)C (centres unmarked) [Compound 40] | –
6.6 | 5 | CN(C)C(=O)C1Cc2cc(Nc3nccc(-c4cc(C#N)c5c(c4)C(C)(C)CN5)n3)ccc2N1 (centres unmarked) [Compound 43] | –
35.5 | 51 | C[C@]1(CO)CNc2c(C#N)cc(-c3ccnc(Nc4cc5c(nc4OC4CCCC4)CCOC5)n3)cc21 [Compound 47] | –
34.7 | 115 | CC(C)Oc1nc2c(cc1Nc1nccc(-c3cc(C#N)c4c(c3)[C@@](C)(CO)CN4)n1)CN(C1CC1)CC2 [Compound 49] | –
12.9 | 37 | COc1cc2c(cc1Nc1nccc(-c3cc(C#N)c4c(c3)C(C)(CO)CN4)n1)NC(=O)CC2 (centres unmarked) [Compound 59] | –

Structure (SMILES) | IC50 (NIK/MAP3K14) [nM] | IC50 ([1]; Homo sapiens, L-363, 2 h) [nM] | IC50 [1] [nM]
Cc1c(Nc2nccc(-c3cc(C#N)c4c(c3)C(C)(CO)CN4)n2)ccc2c1CC(=O)N2 (centres unmarked) [Compound 42] | 8.9 | – | 36
